{"source": "patent US10787442B2", "about": "“Modulators of indoleamine 2,3-dioxygenase” (GLAXOSMITHKLINE INTELLECTUAL PROPERTY DEVELOPMENT LIMITED, priority 2016, dated 2020)", "key": {"[1]": {"system": "human peripheral blood mononuclear cells (PBMC)", "assay": "PBMC cytotoxicity assay (CellTiter-Glo)", "format": "cell-based", "details": "cytotoxicity in stimulated PBMC, recorded as pCC50"}, "[2]": {"assay": "Toxicokinetics in Beagle dogs, 7 day repeat oral administration", "format": "in vivo, Beagle dog", "details": "for Tmax / Cmax / AUC(0-t): Beagle, dog, plasma; for Therapeutic Index AUC (0-12 hr): versus predicted human efficacious AUC; for Therapeutic Index Cmax: versus predicted human efficacious Cmax; for Cmax / AUC(0-t): po; for AUC(0-t): read-out: AUC (0-12 hr)", "text": "To understand its toxicokinetics and potential effect on hepatic functions, EXAMPLE 6 was orally dosed to Beagle dogs for 7 consecutive days."}, "[3]": {"details": "female, 20 mg/kg, Day1, Female, 20 mg/kg PO BID"}, "[4]": {"details": "female, 20 mg/kg, Day7, Female, 20 mg/kg PO BID"}, "[5]": {"details": "male, 20 mg/kg, Day1, Male, 20 mg/kg PO BID"}, "[6]": {"details": "male, 20 mg/kg, Day7, Male, 20 mg/kg PO BID"}}, "note": "Where two headings read alike, the source gives them in different places."}
{"smiles": "CC(C)CN(c1ncc([C@H](C)CC(=O)O)cc1Nc1ccc(Cl)cn1)C1CCOCC1", "note": "[Example 6, (R)-3-(5-((5-chloropyridin-2-yl)amino)-6-(isobutyl(tetrahydro-2H-pyran-4-yl)amino)pyridin-3-yl)butanoic acid]", "values": [{"measurement": "PBMC_TOX PXC50", "setting": "[1]", "value": "<5.0"}, {"measurement": "Tmax", "setting": "[2]; oral, 20 mg/kg, post dose on Days 1 and 7", "value": 30, "unit": "min"}, {"measurement": "Tmax", "setting": "[2]; Day1, Female, 20 mg/kg PO BID", "value": 30, "unit": "min"}, {"measurement": "Tmax", "setting": "[2]; Day1, Male, 20 mg/kg PO BID", "value": 30, "unit": "min"}, {"measurement": "Therapeutic Index AUC (0-12 hr)", "setting": "[2]; Day1, Female, 20 mg/kg", "value": 15}, {"measurement": "Therapeutic Index Cmax", "setting": "[2]; Day1, Female, 20 mg/kg", "value": 86}, {"measurement": "Therapeutic Index AUC (0-12 hr)", "setting": "[2]; Day1, Male, 20 mg/kg", "value": 25}, {"measurement": "Therapeutic Index Cmax", "setting": "[2]; Day1, Male, 20 mg/kg", "value": 237}, {"measurement": "average therapeutic coverage in AUC for the predicted human efficacious dose", "setting": "[2]; Day 7", "value": "~34", "unit": "fold"}, {"measurement": "average therapeutic coverage in Cmax for the predicted human efficacious dose", "setting": "[2]; Day 7", "value": "~147", "unit": "fold"}, {"measurement": "Therapeutic Index AUC (0-12 hr)", "setting": "[2]; Day7, Female, 20 mg/kg", "value": 51}, {"measurement": "Therapeutic Index Cmax", "setting": "[2]; Day7, Female, 20 mg/kg", "value": 102}, {"measurement": "Therapeutic Index AUC (0-12 hr)", "setting": "[2]; Day7, Male, 20 mg/kg", "value": 18}, {"measurement": "Therapeutic Index Cmax", "setting": "[2]; Day7, Male, 20 mg/kg", "value": 191}, {"measurement": "quantifiable in plasma post the start of the oral dose", "setting": "[2]; Days 1 and 7", "value": "up to 24 hours"}, {"measurement": "Cmax on Days 1 and 7", "setting": "[2]; female dog", "value": "comparable"}, {"measurement": "increase in AUC0-12 following 7 day repeat dosing", "setting": "[2]; female dog", "value": "~3", "unit": "fold"}, {"measurement": "Cmax", "setting": "[2]; [3]", "value": 3700, "unit": "ng/mL"}, {"measurement": "AUC(0-t)", "setting": "[2]; [3]", "value": 5200, "unit": "ng·h/mL"}, {"measurement": "Cmax", "setting": "[2]; [4]", "value": 4400, "unit": "ng/mL"}, {"measurement": "AUC(0-t)", "setting": "[2]; [4]", "value": 17900, "unit": "ng·h/mL"}, {"measurement": "systemic exposure (Cmax and AUC0-12 values) on Days 1 and 7", "setting": "[2]; male dog", "value": "similar"}, {"measurement": "Cmax", "setting": "[2]; [5]", "value": 10200, "unit": "ng/mL"}, {"measurement": "AUC(0-t)", "setting": "[2]; [5]", "value": 8700, "unit": "ng·h/mL"}, {"measurement": "Cmax", "setting": "[2]; [6]", "value": 8200, "unit": "ng/mL"}, {"measurement": "AUC(0-t)", "setting": "[2]; [6]", "value": 6500, "unit": "ng·h/mL"}]}
